The numbers were not newly measured in patent US12251380B2, “Depot systems comprising cariprazine or salts thereof” (Mapi Pharma Ltd., priority 2022, dated 2025), which cites them from elsewhere.

For this data set the following is noted: schizophrenic patients.

Like-named read-outs stand apart in the source and are kept apart here.

Regarding `NC(=O)NC1CCC(CCN2CCN(c3cccc(Cl)c3Cl)CC2)CC1` (centres unmarked) [didesmethyl Cariprazine], the elimination half-life (active metabolite after oral Cariprazine) is 2-3 weeks. With `CN(C)C(=O)N[C@H]1CC[C@H](CCN2CCN(c3cccc(Cl)c3Cl)CC2)CC1` [Cariprazine, trans-N-{4-[2-[4-(2,3-dichlorophenyl)piperazine-1-yl]ethyl]cyclohexyl}-N′,N′-dimethylurea], the elimination half-life (oral Cariprazine) was 2 to 5 days.
